Measured values: patent US20230149510A1, “METHOD FOR ALLEVIATING ARTHRITIS USING EPIDERMAL GROWTH FACTOR” (Lovin BioMed Co., Ltd., priority 2021, published 2023)

Experiments:
[1] = system: Chick type II collagen (CII)-induced rheumatoid arthritis (RA); assay: Evaluation of RA severity (visual arthritis scoring), collagen-induced RA; format: in vivo, DBA/1 mice; details: mice, 100 μL intraperitoneal once daily for 20 days, scored every 3 days, 21st to 42nd day, FIG. 6
Experimental: Female DBA/1 mice (8 weeks old, with a body weight of approximately 20 g) used in the following experiments were purchased from National Laboratory Animal Center, Taipei City, Taiwan. All the experimental mice were housed in an animal room under the following laboratory conditions: an alternating 12-hour light and 12-hour dark cycle, a temperature maintained at 21° C. to 23° C., and a relative humidity maintained at 45% to 60%. Furthermore, water and feed were provided ad libitum for all the experimental mice. All experimental procedures involving the experimental mice were in compliance with the legal provision of the Institutional Animal Care and Use Committee of National Chung Hsing University, Taiwan, and were carried out according to the Guide for the Care and Use of Laboratory Animals of National Institutes of Health (NIH). […]
At the end of the 21st day after the initial immunization, the pathological symptoms (i.e., erythema and edema in the sole joint, ankle, and knee joint) in the respective mouse was assessed according to the visual arthritis scoring system described in Brand D. D. et al. (2007), Nat. […] Thereafter, the abovementioned visual arthritis scoring system was performed every 3 days until the 42nd day after the initial immunization (i.e., each mouse was scored 8 times). The degree of RA severity was scored on a scale from 1 to 8. […]

[2] = system: monosodium iodoacetate (MIA)-induced osteoarthritis (OA), right knee joint; assay: Diameter of right knee joint in MIA-induced OA rats; format: in vivo, Sprague Dawley rats; details: 30 μL intraarticular on day 3 and day 14, measured end of day 28 with caliper, FIG. 1
Experimental: A. Preparation of mixture containing EGF, CS, and HA EGF, CS, and HA were mixed in a weight ratio of 1:100:1000 in sterile water, so as to obtain a mixture containing EGF (20 μg/g), CS, and HA.
Male Sprague Dawley rats (6 weeks old, with a body weight of approximately 200 to 300 g) used in the following experiments were purchased from National Laboratory Animal Center, Taipei City, Taiwan. All the experimental mice were housed in an animal room under the following laboratory conditions: an alternating 12-hour light and 12-hour dark cycle, a temperature maintained at 21° C. to 24° C., and a relative humidity maintained at 45% to 70%. Furthermore, water and feed were provided ad libitum for all the experimental mice. All experimental procedures involving the experimental mice were in compliance with the legal provision of the Institutional Animal Care and Use Committee of National Chung Hsing University, Taiwan, and were carried out according to the Guide for the Care and Use of Laboratory Animals of National Institutes of Health (NIH).
The Sprague Dawley rats were divided into five groups, including one normal control group, one pathological control group, one comparative group, and two experimental groups (i.e., experimental groups 1 to 2) (n=5 rats in each group). […]
The data thus obtained were analyzed according to the method described in section 1 of “General Procedures”.

Substance | severity of RA (visual arthritis score, scale 1 to 8) [1] | diameter of the right knee joint [2]
EGF: Epidermal growth factor (Cat. No. 02-108, Joycom Bio-chem) dissolved in PBS, 20 μg/g EGF; given to experimental group 1 (NSDSECPLSHDGYCLHDGVCMYIEALDKYACNCVVGYIGERCQYRDLKWWELR; UniProt P01133 971-1023, looked up) | increased slowly | lower than that determined in the pathological control group
hyaluronic acid [HA, reference compound] | increased slowly | lower than that determined in the pathological control group
